# Results taken from ChEMBL document CHEMBL5113453, “Design, synthesis, and biological evaluation of a new series of pyrazole derivatives: Discovery of potent and selective JNK3 kinase inhibitors” (Bioorg Med Chem, 2022).
# Experiments:
# Assay type in all cases: functional, cell-based
# CAKI-1 = test: Antiproliferative activity against human CAKI-1 cells measured after 48 hrs by SRB assay; settings: for IC50: CAKI-1, 48 h; for TGI: CAKI-1, time 48 hrs
# UACC-257 = test: Antiproliferative activity against human UACC-257 cells measured after 48 hrs by SRB assay; settings: for IC50: UACC-257, 48 h; for TGI: UACC-257, time 48 hrs
# Malme-3M = test: Antiproliferative activity against human Malme-3M cells measured after 48 hrs by SRB assay; settings: for IC50: 48 h; for TGI: time 48 hrs
# HCC 2998 = test: Antiproliferative activity against human HCC 2998 cells measured after 48 hrs by SRB assay; settings: for IC50: HCC 2998, 48 h; for TGI: HCC 2998, time 48 hrs
# M14 = test: Antiproliferative activity against human M14 cells measured after 48 hrs by SRB assay; settings: for IC50: M14, 48 h; for TGI: M14, time 48 hrs
# MDA-MB-231 = test: Antiproliferative activity against human MDA-MB-231 cells measured after 48 hrs by SRB assay; settings: for IC50: MDA-MB-231, 48 h; for TGI: MDA-MB-231, time 48 hrs
# EKVX = test: Antiproliferative activity against human EKVX cells measured after 48 hrs by SRB assay; settings: for IC50: 48 h; for TGI: time 48 hrs
# SR = test: Antiproliferative activity against human SR cells measured after 48 hrs by SRB assay; settings: for IC50: 48 h; for TGI: time 48 hrs
# PC-3 = test: Antiproliferative activity against human PC-3 cells measured after 48 hrs by SRB assay; settings: for IC50: PC-3, 48 h; for TGI: PC-3, time 48 hrs
# NCI-H322M = test: Antiproliferative activity against human NCI-H322M cells measured after 48 hrs by SRB assay; settings: for IC50: 48 h; for TGI: time 48 hrs
# Hs-578T = test: Antiproliferative activity against human Hs-578T cells measured after 48 hrs by SRB assay; settings: for IC50: 48 h; for TGI: time 48 hrs
# MCF7 = test: Antiproliferative activity against human MCF7 cells measured after 48 hrs by SRB assay; settings: for IC50: MCF7, 48 h; for TGI: MCF7, time 48 hrs
# TK-10 = test: Antiproliferative activity against human TK-10 cells measured after 48 hrs by SRB assay; settings: for IC50: TK-10, 48 h; for TGI: TK-10, time 48 hrs
# CCRF-CEM = test: Antiproliferative activity against human CCRF-CEM cells measured after 48 hrs by SRB assay; settings: for IC50: 48 h; for TGI: time 48 hrs
# SNB-75 = test: Antiproliferative activity against human SNB-75 cells measured after 48 hrs by SRB assay; settings: for IC50: SNB-75, 48 h; for TGI: SNB-75, time 48 hrs
# IGROV-1 = test: Antiproliferative activity against human IGROV-1 cells measured after 48 hrs by SRB assay; settings: for IC50: IGROV-1, 48 h; for TGI: IGROV-1, time 48 hrs
# OVCAR-3 = test: Antiproliferative activity against human OVCAR-3 cells measured after 48 hrs by SRB assay; settings: for IC50: OVCAR-3, 48 h; for TGI: OVCAR-3, time 48 hrs
# NCI/ADR-RES = test: Antiproliferative activity against human NCI-ADR-RES cells measured after 48 hrs by SRB assay; settings: for IC50: 48 h; for TGI: time 48 hrs
# SF-539 = test: Antiproliferative activity against human SF-539 cells measured after 48 hrs by SRB assay; settings: for IC50: SF-539, 48 h; for TGI: SF-539, time 48 hrs
# MDA-MB-435 = test: Antiproliferative activity against human MDA-MB-435 cells measured after 48 hrs by SRB assay; settings: for IC50: MDA-MB-435, 48 h; for TGI: MDA-MB-435, time 48 hrs
# RXF 393 = test: Antiproliferative activity against human RXF 393 cells measured after 48 hrs by SRB assay; settings: for IC50: RXF 393, 48 h; for TGI: RXF 393, time 48 hrs
# KM12 = test: Antiproliferative activity against human KM12 cells measured after 48 hrs by SRB assay; settings: for IC50: KM12, 48 h; for TGI: KM12, time 48 hrs
# 786-0 = test: Antiproliferative activity against human 786-0 cells measured after 48 hrs by SRB assay; settings: for IC50: 786-0, 48 h; for TGI: 786-0, time 48 hrs
structure (smiles),measurement,setting,value
O=C1c2ccccc2-c2n[nH]c3cccc1c23,IC50,CAKI-1,3.56 µM
same,TGI,CAKI-1,18.2 µM
same,IC50,UACC-257,29.5 µM
same,TGI,UACC-257,> 100 µM
same,IC50,Malme-3M,16.4 µM
same,TGI,Malme-3M,58.9 µM
same,IC50,HCC 2998,9.62 µM
same,TGI,HCC 2998,54.6 µM
same,IC50,M14,> 100 µM
same,TGI,M14,> 100 µM
same,IC50,MDA-MB-231,65.3 µM
same,TGI,MDA-MB-231,> 100 µM
same,IC50,EKVX,20 µM
same,TGI,EKVX,> 100 µM
same,IC50,SR,13.1 µM
same,TGI,SR,> 100 µM
same,IC50,PC-3,23.3 µM
same,TGI,PC-3,> 100 µM
same,IC50,NCI-H322M,24.9 µM
same,TGI,NCI-H322M,> 100 µM
same,IC50,Hs-578T,55.1 µM
same,TGI,Hs-578T,> 100 µM
same,IC50,MCF7,49 µM
same,TGI,MCF7,> 100 µM
same,IC50,TK-10,5.93 µM
same,TGI,TK-10,52 µM
same,IC50,CCRF-CEM,16 µM
same,TGI,CCRF-CEM,> 100 µM
same,IC50,SNB-75,16.9 µM
same,TGI,SNB-75,97.5 µM
same,IC50,IGROV-1,11.3 µM
same,TGI,IGROV-1,> 100 µM
same,IC50,OVCAR-3,15.3 µM
same,TGI,OVCAR-3,92 µM
same,IC50,NCI/ADR-RES,22.6 µM
same,TGI,NCI/ADR-RES,59.2 µM
same,IC50,SF-539,32.2 µM
same,TGI,SF-539,> 100 µM
same,IC50,MDA-MB-435,12.8 µM
same,TGI,MDA-MB-435,> 100 µM
same,IC50,RXF 393,20.8 µM
same,TGI,RXF 393,> 100 µM
same,IC50,KM12,2.62 µM
same,TGI,KM12,72.1 µM
same,IC50,786-0,27.1 µM
same,TGI,786-0,> 100 µM
COc1cccc(-c2nn(-c3ccccc3)cc2-c2ccnc(NCCCNC(=O)Nc3ccc(F)cc3)c2)c1,IC50,CAKI-1,8.63 µM
same,TGI,CAKI-1,> 37 µM
same,IC50,UACC-257,7.05 µM
same,TGI,UACC-257,16.9 µM
same,IC50,Malme-3M,5.45 µM
same,TGI,Malme-3M,10.6 µM
same,IC50,HCC 2998,7.38 µM
same,TGI,HCC 2998,20 µM
same,IC50,M14,6.71 µM
same,TGI,M14,19 µM
same,IC50,MDA-MB-231,7.84 µM
same,TGI,MDA-MB-231,23 µM
same,IC50,EKVX,9.63 µM
same,TGI,EKVX,> 37 µM
same,IC50,SR,7.7 µM
same,TGI,SR,> 37 µM
same,IC50,PC-3,6.23 µM
same,TGI,PC-3,> 37 µM
same,IC50,NCI-H322M,9.58 µM
same,TGI,NCI-H322M,> 37 µM
same,IC50,Hs-578T,6.24 µM
same,TGI,Hs-578T,17.9 µM
same,IC50,MCF7,7.17 µM
same,TGI,MCF7,18 µM
same,IC50,TK-10,21.2 µM
same,TGI,TK-10,> 37 µM
same,IC50,CCRF-CEM,8.53 µM
same,TGI,CCRF-CEM,31.5 µM
same,IC50,SNB-75,4.18 µM
same,TGI,SNB-75,22.7 µM
same,IC50,IGROV-1,9.34 µM
same,TGI,IGROV-1,> 37 µM
same,IC50,OVCAR-3,6.18 µM
same,TGI,OVCAR-3,> 37 µM
same,IC50,NCI/ADR-RES,7.29 µM
same,TGI,NCI/ADR-RES,25.4 µM
same,IC50,SF-539,6.34 µM
same,TGI,SF-539,13.4 µM
same,IC50,MDA-MB-435,5.61 µM
same,TGI,MDA-MB-435,12.8 µM
same,IC50,RXF 393,6.02 µM
same,TGI,RXF 393,28.6 µM
same,IC50,KM12,10.5 µM
same,TGI,KM12,> 37 µM
same,IC50,786-0,9.34 µM
same,TGI,786-0,> 37 µM
